One assay deals with PDE4B (Homo sapiens (Human), UniProt Q07343). Description: PDE4 Inhibition In Vitro Assay (PDE4B). The class given is biochemical. The note with it: human recombinant PDE4B; 15 minutes at 30° C.; 2.5% DMSO. As to the method:
PDE4 Inhibition In Vitro Assay
The phosphodiesterase assays are performed essentially according to the method described in Loughney, K., et al., J. Biol. Chem., 271, pp. 796-806 (1996). PDE4A, PDE4B, PDE4C, PDE4D, and PDE5 human recombinant proteins are expressed and purified from Saccharomyes cerevisiae that lack endogenous PDEs. The phosphodiesterase enzymes are diluted on ice with enzyme dilution buffer (25 mM Tris, pH 7.5, 0.1 mM DTT, 5.0 mM MgCl2, 100 mM NaCl, 5 μM ZnSO4, 100 μg/mL BSA) to give approximately 20%-40% hydrolysis of cyclic nucleotide monophosphate (cNMP) in the absence of inhibitor.
The stock solution of test compounds are diluted on the Beckman BioMek™ 1000 workstation to span a concentration range of 4.5 log units in 0.5 log increments. The DMSO concentration in the final test system is 2.5% for all PDE enzymes. The final test compound concentration tested ranged from 0.03 nM to 1 μM.
The assay is performed in a 96-well microtiter plate format on a Beckman BioMek™ 1000 robotic station. Each row of the plate represents a 10-point dose response curve containing blank (no enzyme), non-inhibited control, and inhibitor dilutions spanning 4.5 log units in concentration in 0.5 log increments. Assay stock solutions are loaded into the Biomek™ reservoirs (water, inhibitor diluent [2.5% or 10% DMSO], 5× PDE assay buffer, substrate, inhibitor solutions, enzyme solutions, snake venom nucleotidase, and charcoal suspension). The reaction is initiated with enzyme, and incubated for 15 minutes at 30° C. An excess of Crotalus atrox snake venom nucleotidase (5 μL/well) is then added and the mixture is incubated for an additional 3 minutes. The reaction is terminated by the addition of 200 μL of activated charcoal suspension, after which the plate is centrifuged for 5 minutes at 750×g. A transfer program is run in which 200 μL of supernatant is removed and placed into a new plate. The amount of radioactivity released as phosphate is determined in a Wallac MicroBeta Plate™ counter.
The reduced data at each concentration of inhibitor is analyzed using a four-, three- or two-parameter logistic dose response model to provide an IC50 value.

Assay [1] deals with chronic cyclophosphamide (CYP)-induced overactive bladder mouse model. Briefly: Overactive Bladder In Vivo Model. Conditions: tadalafil 10 mg/kg orally daily; CYP-induced OAB female C57/B16 mice; day 8, 4 hour urine collection. As to the method: Overactive Bladder In Vivo Model
The in vivo effect of PDE4 inhibitors on OAB is studied with a chronic cyclophosphamide (CYP)-induced overactive bladder mouse model adapted from Boudes et al., Neurourol. Urodynam. 2011. In a typical study, female C57/B16 mice, approximately 20 grams in body weight (Harlan Laboratories, Inc., Indianapolis, Ind.) are used. Mice are randomized by body weight into groups one day before the start of the study. Mice are individually housed and maintained on a 12 hour light/dark cycle at 22° C. with ad lib access to food (TD 2014 with 0.72% Ca and 0.61% P, 990 IU/g D3, Teklad™, Madison, Wis.) and water Animals receive cyclophosphamide (dissolved in physiological saline) i.p. administration at 100 mg/kg on days 1, 3, 5, and 7 to chronically induce OAB. The vehicle control group received daily vehicle (HEC 1%/Tween 80 0.25%/Antifoam 0.05%) administered orally. All other groups are administered orally tadalafil at 10 mg/kg in combination with 0.1, 1.0, or 10.0 mg/kg of test compound daily at a volume of 200 μl/mouse. On day 8, mice are housed in urine collection chambers with a filter paper placed underneath chamber. Prior to urine collection, gavages of 1 ml water are given to each mouse. […] Voiding frequency and volume/void are calculated using Image J software (NIH). Data are statistically analyzed with JMP8® software (Cary, N.C.). […]

The record followed here is patent US10781202B2, “Azetidinyloxyphenylpyrrolidine compounds” (Eli Lilly and Company, priority 2014, dated 2020).

Each structure is given as a SMILES string.

Chain of PDE4B (Q07343 whole entry): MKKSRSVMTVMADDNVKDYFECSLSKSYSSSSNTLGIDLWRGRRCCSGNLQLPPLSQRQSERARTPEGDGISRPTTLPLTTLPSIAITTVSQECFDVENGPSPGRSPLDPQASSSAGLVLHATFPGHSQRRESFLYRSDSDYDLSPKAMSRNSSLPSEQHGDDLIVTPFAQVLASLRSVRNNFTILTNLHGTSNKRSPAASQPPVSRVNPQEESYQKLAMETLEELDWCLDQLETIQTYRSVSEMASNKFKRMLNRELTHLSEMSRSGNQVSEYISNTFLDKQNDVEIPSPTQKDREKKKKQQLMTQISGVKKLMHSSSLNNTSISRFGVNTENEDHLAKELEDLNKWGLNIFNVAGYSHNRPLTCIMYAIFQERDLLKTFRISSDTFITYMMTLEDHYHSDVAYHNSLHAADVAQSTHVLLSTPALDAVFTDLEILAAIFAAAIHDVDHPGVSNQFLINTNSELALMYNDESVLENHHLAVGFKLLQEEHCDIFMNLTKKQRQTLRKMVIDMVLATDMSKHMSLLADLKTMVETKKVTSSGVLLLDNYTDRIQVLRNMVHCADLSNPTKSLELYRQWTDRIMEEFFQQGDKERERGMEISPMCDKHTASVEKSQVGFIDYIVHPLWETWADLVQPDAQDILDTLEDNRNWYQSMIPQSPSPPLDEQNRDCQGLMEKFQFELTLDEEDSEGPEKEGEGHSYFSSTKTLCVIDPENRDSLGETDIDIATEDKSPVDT

Consider `COc1ccc([C@@H]2CN(C(=O)[C@@H](O)CO)C[C@@]2(C)[C@@H](C)O)cc1OC1CN(c2cccnc2)C1` [Example 2, (2S)-3-[(3S,4S)-3-[(1R)-1-hydroxyethyl]-4-{4-methoxy-3-[(1-pyridin-3-ylazetidin-3-yl)oxy]phenyl}-3-methylpyrrolidin-1-yl]-3-oxopropane-1,2-diol], for which the IC50 at PDE4B was determined as 1800 pM.
Same read-out and setting: in the case of `COc1ccc([C@@H]2CN(C(=O)[C@@H](O)CO)C[C@@]2(C)[C@@H](C)O)cc1OC1CN(c2ccncc2)C1` [Example 3, (2S)-3-[(3S,4S)-3-[(1R)-1-hydroxyethyl]-4-{4-methoxy-3-[(1-pyridin-4-ylazetidin-3-yl)oxy]phenyl}-3-methylpyrrolidin-1-yl]-3-oxopropane-1,2-diol] it was 7700 pM.
As to `COc1ccc([C@@H]2CN(C(=O)[C@@H](O)CO)C[C@@]2(C)[C@@H](C)O)cc1OC1CN(c2ncccn2)C1` [Example 5, (2S)-3-[(3S,4S)-3-[(1R)-1-hydroxyethyl]-4-{4-methoxy-3-[(1-pyrimidin-2-ylazetidin-3-yl)oxy]phenyl}-3-methylpyrroldiin-1-yl]-3-oxopropane-1,2-diol], the IC50 at PDE4B turned out to be 1500 pM.
In the case of `COc1ccc([C@@H]2CN(C(=O)[C@@H](O)CO)C[C@@]2(C)[C@@H](C)O)cc1OC1CN(c2ccc(C#N)cn2)C1` [Example 6, (2S)-3-[(3S,4S)-3-[(1R)-1-hydroxyethyl]-4-(4-methoxy-3-{[1-(5-cyanopyridin-2-yl)azetidin-3-yl]oxy}phenyl)-3-methylpyrrolidin-1-yl]-3-oxopropane-1,2-diol], the IC50 on PDE4B worked out at 310 pM.
The same measure, in the same setting: to `COc1ccc([C@@H]2CN(C(=O)[C@@H](O)CO)C[C@@]2(C)[C@@H](C)O)cc1OC1CN(c2cc(C#N)ccn2)C1` [Example 7, (2S)-3-[(3S,4S)-3-[(1R)-1-hydroxyethyl]-4-(4-methoxy-3-{[1-(4-cyanopyridin-2-yl)azetidin-3-yl]oxy}phenyl)-3-methylpyrrolidin-1-yl]-3-oxopropane-1,2-diol] belongs 440 pM; to `COc1ccc([C@@H]2CN(C(=O)[C@@H](O)CO)C[C@@]2(C)[C@@H](C)O)cc1OC1CN(c2cc(Cl)ncn2)C1` [Example 8, (2S)-3-[(3S,4)S-3-[(1R)-1-hydroxyethyl]-4-{4-methoxy-3-[(1-(6-chloropyrimidin-4-yl)azetidin-3-yl)oxy]phenyl}-3-methylpyrrolidin-1-yl]-3-oxopropane-1,2-diol], 530 pM; to `COc1ccc([C@@H]2CN(C(=O)[C@@H](O)CO)C[C@@]2(C)[C@@H](C)O)cc1OC1CN(c2ccc(Cl)cn2)C1` [Example 12, (2S)-3-[(3S,4S)-3-[(1R)-1-hdyroxyethyl]-4-(4-methoxy-3-{[1-(5-chloropyridin-2-yl)azetidin-3-yl]oxy}phenyl)-3-methylpyrrolidin-1-yl]-3-oxopropane-1,2-diol], 160 pM.
The same measure, in the same setting: in the case of `COc1ccc([C@@H]2CN(C(=O)[C@@H](O)CO)C[C@@]2(C)[C@@H](C)O)cc1OC1CN(c2ccncn2)C1` [Example 13, (2S)-3-[(3S,4S)-3-[(1R)-1-hydroxyethyl]-4-(4-methoxy-3-{[1-(pyrimidin-4-yl)azetidin-3-yl]oxy}phenyl)-3-methylpyrrolidin-1-yl]-3-oxopropane-1,2-diol] it was 3800 pM; in that of `[2H]C([2H])([2H])c1ccc(N2CC(Oc3cc([C@@H]4CN(C(=O)[C@@H](O)CO)C[C@@]4(C)[C@@H](C)O)ccc3OC)C2)nc1` [Example 14, (S)-2,3-dihydroxy-1-((3S,4S)-3-((R)-1-hydroxyethyl)-4-(4-methoxy-3-((1-(5-(methyl-D3)pyridin-2-yl)azetidin-3-yl)oxy)phenyl)-3-methylpyrrolidin-1-yl)propan-1-one], 130 pM.
For `CN1CC(=O)N2[C@H](c3ccc4c(c3)OCO4)c3[nH]c4ccccc4c3C[C@@H]2C1=O` [tadalafil], in assay [1], the urinary frequency result is “no significant activity” and the volume per void result is “no significant activity”.

As usually defined, the IC50 is the midpoint of a concentration-inhibition curve.
